In article PMC9749938, “Alkyltriphenylphosphonium turns naphthoquinoneimidazoles into potent membrane depolarizers against mycobacteria” (RSC Medicinal Chemistry, 2022):
≈ marks a conversion by molar mass, not a printed value. Like-named read-outs stand apart in the source and are kept apart here.

Legend:
M. bovis BCG [1] = test: microbe, parasite or virus in culture; format: cell-based, Mycobacterium bovis BCG; details: for MIC50 / MIC90 / IC50: Mycobacterium tuberculosis variant bovis BCG, BCG; for MIC50: read-out: M. bovis BCG MIC50, concentration reducing growth by 50% vs untreated controls; for M. bovis BCG MIC50: concentration reducing growth by 50% vs untreated controls; for M. bovis BCG MIC90: concentration reducing growth by 90% vs untreated controls; for IC50: read-out: M. bovis BCG MIC50
Vero E6 cells = test: Cytotoxicity on Vero E6 cells; format: cell-based, African green monkey; details: Chlorocebus sabaeus, Vero C1008; 48 h; reduces growth of Vero E6 by 50% vs untreated controls
M. bovis BCG [2] = format: cell-based, Mycobacterium bovis BCG; details: 4× MIC90, up to 24 h
M. bovis BCG [3] = test: microbe, parasite or virus in culture; format: cell-based; details: Mycobacterium tuberculosis variant bovis BCG, 120 h
M. bovis BCG [4] = format: cell-based, Mycobacterium bovis BCG; details: 4× MIC90, up to 24 h; remark: listed apart in the source
M. bovis BCG [5] = format: cell-based, Mycobacterium bovis BCG; details: 4× MIC90, after 24 hours
[6] = system: inverted membrane vesicles of wild-type M. smegmatis mc^24517; test: NADH oxidation in inverted membrane vesicles, WT; format: biochemical; details: for EC50: WT M. smegmatis mc^24517, read-out: EC50 of activation of NADH oxidation, WT IMV
M. bovis BCG [7] = format: cell-based, Mycobacterium bovis BCG; details: 4× MIC90, time course to 24 h and after
[8] = Aqueous solubility (Multiscreen solubility filter plates); format: physicochemical; details: pH 7.4, 24 h agitation
M. tb H37Rv = test: MIC determination by broth dilution on M. tb H37Rv; format: cell-based; details: Mycobacterium tuberculosis
M. bovis BCG-pfurA-RFP = format: cell-based, Mycobacterium bovis BCG; details: 24 h, 37 °C
M. bovis BCG-piniBAC-RFP = format: cell-based, Mycobacterium bovis BCG; details: 24 h, various concentrations
M. bovis BCG [9] = format: cell-based, Mycobacterium bovis BCG; details: 0.5× to 2× MIC90, 1.5 h + 30 min dye
[10] = Horseradish peroxidase-phenol red assay for H2O2 generation; format: biochemical; details: in vitro, with DTT
M. bovis BCG [11] = format: cell-based, Mycobacterium bovis BCG
[12] = read-out: M. bovis BCG MIC90, concentration reducing growth by 90% vs untreated controls, broth dilution
[13] = Universal buffer with 1% DMSO, pH 7.4, 25 °C
[14] = read-out: MIC90 of control compounds (Fig. 4 legend), controls of redox assays, organism not restated

Cc1nc2c(n1CCCCCCCCCCC[P+](C1CCCCC1)(C1CCCCC1)C1CCCCC1)C(=O)c1ccccc1C2=O.[I-] [Compound 18]
MIC50 (M. bovis BCG [1]; broth dilution): 0.6 µM
MIC90 (M. bovis BCG [1]; [12]): 0.9 µM
M. bovis BCG MIC50 (M. bovis BCG [1]; broth dilution): 0.6 (0.6, 0.6) μM
IC50 (Vero E6 cells): 4.1 µM

Cc1nc2c(n1CCC[P+](c1ccccc1)(c1ccccc1)c1ccccc1)C(=O)c1ccccc1C2=O.[I-] [Compound 3]
MIC50 (M. bovis BCG [1]; broth dilution): 4 µM
MIC90 (M. bovis BCG [1]; [12]): 5.6 µM
M. bovis BCG MIC50 (M. bovis BCG [1]; broth dilution): 4.0 (4.0, 4.0) μM
IC50 (Vero E6 cells): > 400 µM

Cc1nc2ccccc2n1CCCCCCCCCCC[P+](c1ccccc1)(c1ccccc1)c1ccccc1.[I-] [Compound 11]
MIC50 (M. bovis BCG [1]; broth dilution): 0.9 µM
MIC90 (M. bovis BCG [1]; [12]): 1.4 µM
M. bovis BCG MIC90 (M. bovis BCG [1]; broth dilution): 1.4 (1.4, 1.4) μM
IC50 (Vero E6 cells): 11.5 µM

Cc1nc2c(n1CCCCCCC[n+]1ccccc1)C(=O)c1ccccc1C2=O.[I-] [Compound 16]
MIC50 (M. bovis BCG [1]; broth dilution): 28.7 µM
MIC90 (M. bovis BCG [1]; [12]): 48.5 µM
M. bovis BCG MIC50 (M. bovis BCG [1]; broth dilution): 28.7 (32.5, 25.0) μM
M. bovis BCG MIC90 (M. bovis BCG [1]; broth dilution): 48.5 (48.0, 49.0) μM

CCCCCC[P+](CCCCCC)(CCCCCC)CCCCCCCn1c(C)nc2c1C(=O)c1ccccc1C2=O.[I-] [Compound 19]
MIC50 (M. bovis BCG [1]; broth dilution): 0.7 µM
MIC90 (M. bovis BCG [1]; [12]): 1.4 µM
M. bovis BCG MIC50 (M. bovis BCG [1]; broth dilution): 0.7 (0.7, 0.7) μM
M. bovis BCG MIC90 (M. bovis BCG [1]; broth dilution): 1.4 (1.4, 1.4) μM
IC50 (Vero E6 cells): 5.2 µM

Cc1nc2c(n1CCCCCCCCCCC[P+](c1ccccc1)(c1ccccc1)c1ccccc1)C(=O)c1cccnc1C2=O [Compound 15]
IC50 (M. bovis BCG [1]): 0.6 µM
MIC50 (M. bovis BCG [1]; broth dilution): 0.65 µM
MIC90 (M. bovis BCG [1]; [12]): 1.2 µM
IC50 (Vero E6 cells): 5.4 µM

CCCCCCCCCCC[P+](c1ccccc1)(c1ccccc1)c1ccccc1.[I-] [Compound 9]
MIC50 (M. bovis BCG [1]; broth dilution): 2.1 µM
MIC90 (M. bovis BCG [1]; [12]): 2.8 µM
Membrane potential (DiOC2(3) red/green ratio) (M. bovis BCG [2]): behaved similarly to 6 and 7

Cc1nc2c(n1CCCCCCCCCCC[P+](c1ccccc1)(c1ccccc1)c1ccccc1)C(=O)c1ccccc1C2=O.[I-] [Compound 7]
MBC (M. bovis BCG [3]; read-out: M. bovis BCG MBC90): 1.6 µM
MBC (M. bovis BCG [3]; read-out: M. bovis BCG MBC99): 3.1 µM
MBC (M. bovis BCG [3]; read-out: M. bovis BCG MBC99.9): 6.2 µM
Membrane permeabilization (SYTO9/PI green/red ratio) (M. bovis BCG [4]): not accompanied by membrane permeabilization
CFU count of treated cultures (M. bovis BCG [5]): remained relatively constant
Activation of NADH oxidation, WT IMV ([6]; WT M. smegmatis): negligible activation of NADH oxidation
Intracellular ATP levels (M. bovis BCG [7]): initial drop in ATP levels
solubility at 24 h [8, 13]: 27 µM
IC50 (M. bovis BCG [1]): 0.55 µM
MIC50 (M. bovis BCG [1]; broth dilution): 0.5 µM
MIC90 (M. bovis BCG [1]; [12]): ≤ 1 µM
MIC50 (M. tb H37Rv): 1.15 µM
MIC90 (M. tb H37Rv): 1.8 µM
Induction of pfurA promoter (RFP fluorescence) (M. bovis BCG-pfurA-RFP): not observed
Induction of piniBAC promoter (RFP fluorescence) (M. bovis BCG-piniBAC-RFP): no increase in fluorescence
Membrane potential (DiOC2(3) red/green ratio) (M. bovis BCG [2]): rapid and sustained loss of membrane potential
IC50 (Vero E6 cells): 5.6 µM
ROS formation in cultures (CellROX Green) (M. bovis BCG [9]): negligible levels of ROS
H2O2 generation, HRP-phenol red assay [10]: negligible H2O2 generation

CCCCn1c2c([n+](C3CCC4(CCCCC4)CC3)c1C)C(=O)c1ccccc1C2=O.[Br-] [Compound 44, reference compound]
EC50 [6]: 0.76 µM
MIC90 (M. bovis BCG [1]; [14]): 0.32 µM
Induction of pfurA promoter (RFP fluorescence) (M. bovis BCG-pfurA-RFP): discernible dose-dependent increase in the fluorescence signal
ROS formation in cultures (CellROX Green) (M. bovis BCG [9]): dose-dependent ROS formation

NNC(=O)c1ccncc1 [INH, isoniazid, reference compound]
MIC90 (M. bovis BCG [1]; [14]): 3.7 µM (≈ 0.507 µg/mL)
Time-kill: CFU over 21 days (M. bovis BCG [11]): rapid decrease in CFU in the first two time points
Induction of piniBAC promoter (RFP fluorescence) (M. bovis BCG-piniBAC-RFP): increased piniBAC promoter activity

CCCCCCCCn1c2c([n+](CCCC)c1C)C(=O)c1ccccc1C2=O.[Br-] [Compound 45, reference compound]
EC50 [6]: 0.2 µM
MIC90 (M. bovis BCG [1]; [14]): 0.32 µM
Induction of pfurA promoter (RFP fluorescence) (M. bovis BCG-pfurA-RFP): discernible dose-dependent increase in the fluorescence signal
ROS formation in cultures (CellROX Green) (M. bovis BCG [9]): dose-dependent ROS formation

Cc1nc2c(n1CCCCCCCCC[P+](c1ccccc1)(c1ccccc1)c1ccccc1)C(=O)c1ccccc1C2=O.[I-] [Compound 6]
MBC (M. bovis BCG [3]; read-out: M. bovis BCG MBC90): 1.6 µM
MBC (M. bovis BCG [3]; read-out: M. bovis BCG MBC99): 3.1 µM
MBC (M. bovis BCG [3]; read-out: M. bovis BCG MBC99.9): 6.2 µM
Membrane permeabilization (SYTO9/PI green/red ratio) (M. bovis BCG [4]): not accompanied by membrane permeabilization
CFU count of treated cultures (M. bovis BCG [5]): remained relatively constant
Intracellular ATP levels (M. bovis BCG [7]): initial drop in ATP levels
solubility at 24 h ([8]; 25 °C): 105.8 µM
solubility at 24 h [8, 13]: 106 µM
MIC50 (M. bovis BCG [1]; broth dilution): 0.59 µM
MIC90 (M. bovis BCG [1]; [12]): 1 µM
M. bovis BCG MIC50 (M. bovis BCG [1]; broth dilution): 0.58 (0.6, 0.59) μM
Time-kill: CFU over 21 days (M. bovis BCG [11]): steady decrease of CFU up to day 8
MIC50 (M. tb H37Rv): 0.37 µM
MIC90 (M. tb H37Rv): 0.8 µM
Induction of pfurA promoter (RFP fluorescence) (M. bovis BCG-pfurA-RFP): not observed
Induction of piniBAC promoter (RFP fluorescence) (M. bovis BCG-piniBAC-RFP): no increase in fluorescence
Membrane potential (DiOC2(3) red/green ratio) (M. bovis BCG [2]): rapid and sustained loss of membrane potential
IC50 (Vero E6 cells): 12.4 µM
ROS formation in cultures (CellROX Green) (M. bovis BCG [9]): negligible levels of ROS
H2O2 generation, HRP-phenol red assay [10]: negligible H2O2 generation

Cc1nc2c(n1CCCCC[P+](c1ccccc1)(c1ccccc1)c1ccccc1)C(=O)c1ccccc1C2=O.[I-] [Compound 4]
MIC50 (M. bovis BCG [1]; broth dilution): 2.4 µM
MIC90 (M. bovis BCG [1]; [12]): 4.6 µM
M. bovis BCG MIC90 (M. bovis BCG [1]; broth dilution): 4.6 (4.6, 4.6) μM
IC50 (Vero E6 cells): > 400 µM

CCCCCCC[P+](c1ccccc1)(c1ccccc1)c1ccccc1.[I-] [Compound 8]
MIC50 (M. bovis BCG [1]; broth dilution): 5.5 µM
MIC90 (M. bovis BCG [1]; [12]): 10.5 µM
M. bovis BCG MIC90 (M. bovis BCG [1]; broth dilution): 10.5 (10.2, 10.8) μM
Membrane potential (DiOC2(3) red/green ratio) (M. bovis BCG [2]): behaved similarly to 6 and 7

Cc1cc(=O)n(CCCCCCCCCCC[P+](c2ccccc2)(c2ccccc2)c2ccccc2)c2c1C(=O)c1ccccc1C2=O [Compound 13]
MIC50 (M. bovis BCG [1]; broth dilution): 3.8 µM
MIC90 (M. bovis BCG [1]; [12]): 5.7 µM
IC50 (Vero E6 cells): 2.1 µM

Cc1nc2c(n1CCCCCCC[P+](C1CCCCC1)(C1CCCCC1)C1CCCCC1)C(=O)c1ccccc1C2=O.[I-] [Compound 17]
MIC50 (M. bovis BCG [1]; broth dilution): 1.3 µM
MIC90 (M. bovis BCG [1]; [12]): 2.5 µM
M. bovis BCG MIC50 (M. bovis BCG [1]; broth dilution): 1.3 (1.3, 1.3) μM
IC50 (Vero E6 cells): 24.4 µM

Cc1nc2c(n1CCCCCCC[P+](c1ccccc1)(c1ccccc1)c1ccccc1)C(=O)c1ccccc1C2=O.[I-] [Compound 5]
MIC50 (M. bovis BCG [1]; broth dilution): 1.2 µM
MIC90 (M. bovis BCG [1]; [12]): 2.3 µM
M. bovis BCG MIC50 (M. bovis BCG [1]; broth dilution): 1.2 (1.2, 1.2) μM
IC50 (Vero E6 cells): 48.4 µM

O=C1c2ccccc2C(=O)c2c1nc(C(F)(F)F)n2CCCCCCCCCCC[P+](c1ccccc1)(c1ccccc1)c1ccccc1 [Compound 14]
MIC50 (M. bovis BCG [1]; broth dilution): 1.8 µM
MIC90 (M. bovis BCG [1]; [12]): 2.8 µM
IC50 (Vero E6 cells): 5.6 µM

Cc1nc2ccccc2n1CCCCCCC[P+](c1ccccc1)(c1ccccc1)c1ccccc1.[I-] [Compound 10]
MIC50 (M. bovis BCG [1]; broth dilution): 3.8 µM
MIC90 (M. bovis BCG [1]; [12]): 5.6 µM
M. bovis BCG MIC50 (M. bovis BCG [1]; broth dilution): 3.8 (3.8, 3.8) μM
IC50 (Vero E6 cells): 86.4 µM

O=C1C=CC(=O)c2ccccc21 [NQ, 1,4-Naphthoquinone, reference compound]
MIC90 (M. bovis BCG [1]; [14]): 100 µM (≈ 15.8 µg/mL)

Cc1cc(=O)n(CCCCCCC[P+](c2ccccc2)(c2ccccc2)c2ccccc2)c2c1C(=O)c1ccccc1C2=O.[I-] [Compound 12]
MIC50 (M. bovis BCG [1]; broth dilution): 1 µM
MIC90 (M. bovis BCG [1]; [12]): 1.4 µM
M. bovis BCG MIC90 (M. bovis BCG [1]; broth dilution): 1.4 (1.4, 1.4) μM
IC50 (Vero E6 cells): 5.9 µM
